The assay deals with T1, AP1G1 AP-1 complex subunit gamma-1 (Homo sapiens, UniProt O43747).
T1 construct: isoTOP-ABPP experiments performed in cell lysates (in vitro); endogenous in cells; host or cells: MDA-MB-231 soluble lysate
T1 sequence (O43747 1-822): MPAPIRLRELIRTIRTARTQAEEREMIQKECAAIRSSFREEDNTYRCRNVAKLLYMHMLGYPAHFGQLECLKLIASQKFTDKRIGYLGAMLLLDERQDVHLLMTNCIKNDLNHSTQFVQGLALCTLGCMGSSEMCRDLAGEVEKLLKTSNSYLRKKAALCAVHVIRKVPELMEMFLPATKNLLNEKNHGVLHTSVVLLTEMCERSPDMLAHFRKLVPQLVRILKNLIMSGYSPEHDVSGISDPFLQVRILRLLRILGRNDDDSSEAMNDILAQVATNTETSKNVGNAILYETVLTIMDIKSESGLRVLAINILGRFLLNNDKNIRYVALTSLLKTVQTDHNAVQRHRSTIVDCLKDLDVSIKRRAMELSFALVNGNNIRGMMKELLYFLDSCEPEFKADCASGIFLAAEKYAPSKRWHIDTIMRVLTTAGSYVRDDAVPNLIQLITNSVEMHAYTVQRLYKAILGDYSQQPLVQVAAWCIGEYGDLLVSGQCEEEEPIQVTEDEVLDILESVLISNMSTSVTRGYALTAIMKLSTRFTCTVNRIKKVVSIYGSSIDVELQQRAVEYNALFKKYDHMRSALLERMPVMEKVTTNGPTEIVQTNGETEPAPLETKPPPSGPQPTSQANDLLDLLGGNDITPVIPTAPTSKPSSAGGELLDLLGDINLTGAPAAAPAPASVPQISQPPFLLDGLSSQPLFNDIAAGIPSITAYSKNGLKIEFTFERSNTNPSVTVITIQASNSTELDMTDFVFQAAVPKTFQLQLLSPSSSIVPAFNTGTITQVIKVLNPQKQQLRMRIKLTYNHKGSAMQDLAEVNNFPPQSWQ
As to the kind of experiment: competitive isoTOP-ABPP. It is filed as binding. To be noted: for R value (DMSO/fragment) for probe 1 labeling: O43747_K214; for R value (DMSO/fragment) for probe 1 labeling / isoTOP-ABPP reactivity ratio at lysine O43747_K214 / isoTOP-ABPP ratio (R) at liganded lysine O43747_K214: 50 uM, in vitro; for R value (DMSO/fragment) for probe 1 labeling / isoTOP-ABPP reactivity ratio at lysine O43747_K214: 231 sol; for isoTOP-ABPP ratio (R) at liganded lysine O43747_K214: sol, 231. The procedure, abridged: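 Fragments at 50 μM (activated esters) or 100 μM (guanidinylating agents) were incubated with 0.5 ml lysate before probe labeling. After 0.1 mM STP-alkyne for 1 h, samples were clicked to isotopically distinct TEV tags, and R taken as DMSO-over-compound MS1 peak-area ratio.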

For `O=C(CCc1cn(-c2ccccc2)nc1-c1ccccc1)Oc1c(F)c(F)c(F)c(F)c1F` [fragment 19, Pentafluorophenyl 3-(1,3-diphenyl-1H-pyrazol-4-yl)propanoate], the “R value (DMSO/fragment) for probe 1 labeling” value (shortened to “R value (DMSO/fragment)”) amounted to 1.0.

On to `O=C(Oc1c(F)c(F)c(F)c(F)c1F)C(c1ccccc1)c1ccccc1` [fragment 20, Pentafluorophenyl 2,2-diphenylacetate], for which the “R value (DMSO/fragment)” value is on record as 0.9.

In the case of `O=C(Oc1c(F)c(F)c(F)c(F)c1F)c1cc(C(F)(F)F)cc(C(F)(F)F)c1` [fragment 21, Pentafluorophenyl 3,5-bis(trifluoromethyl)benzoate], the “R value (DMSO/fragment)” value came out at 0.9.

`Cn1cc(CC(=O)Oc2c(F)c(F)c(F)c(F)c2F)c2ccccc21` [fragment 22, Pentafluorophenyl 2-(1-methyl-1H-indol-3-yl)acetate]: the “R value (DMSO/fragment)” value is reported as 1.1.

For the compound `COc1cc(CCC(=O)Oc2c(F)c(F)c(F)c(F)c2F)cc(OC)c1OC` [fragment 23, Pentafluorophenyl 3-(3,4,5-trimethoxyphenyl)propanoate], the “R value (DMSO/fragment)” value was 1.1.

Regarding `O=C(Oc1c(F)c(F)c(F)c(F)c1F)C1CCN(C(=O)OCc2ccccc2)CC1` [fragment 24, 1-Benzyl 4-(pentafluorophenyl) piperidine-1,4-dicarboxylate], the “isoTOP-ABPP reactivity ratio at lysine O43747_K214” value (shortened to “isoTOP-ABPP reactivity ratio”) is 1.0.

Take `O=C(Oc1c(F)c(F)c(F)c(F)c1F)c1ccc2ccccc2n1` [fragment 25, Pentafluorophenyl quinoline-2-carboxylate]: the “isoTOP-ABPP reactivity ratio” value amounted to 1.0.

As to `O=C(CCc1coc2cc(F)ccc2c1=O)Oc1c(F)c(F)c(F)c(F)c1F` [fragment 26, Pentafluorophenyl 3-(7-fluoro-4-oxo-4H-chromen-3-yl)propanoate], the “isoTOP-ABPP reactivity ratio” value came out at 1.1.

On to `O=C(CN1C(=O)c2ccccc2C1=O)Oc1c(F)c(F)c(F)c(F)c1F` [fragment 27, Pentafluorophenyl 2-(1,3-dioxoisoindolin-2-yl)acetate], for which the “isoTOP-ABPP reactivity ratio” value turned out to be 0.9.

As for `CCn1cc(C(=O)Oc2c(F)c(F)c(F)c(F)c2F)c(=O)c2ccc(C)nc21` [fragment 28, Pentafluorophenyl 1-ethyl-7-methyl-4-oxo-1,4-dihydro-1,8-naphthyridine-3-carboxylate], the “isoTOP-ABPP reactivity ratio” value is reported as 1.0.

On to `O=C(CCc1cn(-c2ccccc2)nc1-c1ccccc1)Oc1ccc([N+](=O)[O-])cc1[N+](=O)[O-]` [fragment 29, 2,4-Dinitrophenyl 3-(1,3-diphenyl-1H-pyrazol-4-yl)propanoate], for which the “isoTOP-ABPP reactivity ratio” value is recorded as 1.0.

For the compound `O=C(Oc1ccc([N+](=O)[O-])cc1[N+](=O)[O-])C(c1ccccc1)c1ccccc1` [fragment 30, 2,4-Dinitrophenyl 2,2-diphenylacetate], the “isoTOP-ABPP reactivity ratio” value came out at 1.1.

As to `O=C(Oc1ccc([N+](=O)[O-])cc1[N+](=O)[O-])c1cc(C(F)(F)F)cc(C(F)(F)F)c1` [fragment 31, 2,4-Dinitrophenyl 3,5-bis(trifluoromethyl)benzoate], the “isoTOP-ABPP reactivity ratio” value turned out to be 0.9.

For `Cn1cc(CC(=O)Oc2ccc([N+](=O)[O-])cc2[N+](=O)[O-])c2ccccc21` [fragment 32, 2,4-Dinitrophenyl 2-(1-methyl-1H-indol-3-yl)acetate], the “isoTOP-ABPP reactivity ratio” value turned out to be 6.6.

For `COc1cc(CCC(=O)Oc2ccc([N+](=O)[O-])cc2[N+](=O)[O-])cc(OC)c1OC` [fragment 33, 2,4-Dinitrophenyl 3-(3,4,5-trimethoxyphenyl)propanoate], the “isoTOP-ABPP reactivity ratio” value worked out at 1.7.

As for `O=C(Oc1ccc([N+](=O)[O-])cc1[N+](=O)[O-])C1CCN(C(=O)OCc2ccccc2)CC1` [fragment 34, 1-Benzyl 4-(2,4-dinitrophenyl) piperidine-1,4-dicarboxylate], the “isoTOP-ABPP ratio (R) at liganded lysine O43747_K214” value (“isoTOP-ABPP ratio (R)” for short) is recorded as 1.7.

With `O=C(Oc1ccc([N+](=O)[O-])cc1[N+](=O)[O-])c1ccc2ccccc2n1` [fragment 35, 2,4-Dinitrophenyl quinoline-2-carboxylate], the “isoTOP-ABPP ratio (R)” value came out at 1.0.

Take `O=C(CCc1coc2cc(F)ccc2c1=O)Oc1ccc([N+](=O)[O-])cc1[N+](=O)[O-]` [fragment 36, 2,4-Dinitrophenyl 3-(7-fluoro-4-oxo-4H-chromen-3-yl)propanoate]: the “isoTOP-ABPP ratio (R)” value turned out to be 1.1.

Turning to `O=C(Oc1ccc([N+](=O)[O-])cc1[N+](=O)[O-])c1ccc(-c2ccccc2)cc1` [fragment 37, 2,4-Dinitrophenyl [1,1′-biphenyl]-4-carboxylate], the “isoTOP-ABPP ratio (R)” value was 0.9.

Turning to `O=C(CC12CC3CC(CC(C3)C1)C2)Oc1ccc([N+](=O)[O-])cc1[N+](=O)[O-]` [fragment 38, 2,4-Dinitrophenyl 2-(adamantan-1-yl)acetate], the “isoTOP-ABPP ratio (R)” value is 0.9.

Take `O=C(Oc1ccc([N+](=O)[O-])cc1[N+](=O)[O-])c1ccc(Oc2ccccc2)cc1` [fragment 39, 2,4-Dinitrophenyl 4-phenoxybenzoate]: the “isoTOP-ABPP ratio (R)” value is 0.8.

As to `O=C(Oc1ccc([N+](=O)[O-])cc1[N+](=O)[O-])c1ccccc1Nc1cccc(C(F)(F)F)c1` [fragment 40, 2,4-Dinitrophenyl 2-((3-(trifluoromethyl)phenyl)amino)benzoate], the “isoTOP-ABPP ratio (R)” value is 0.9.

In the case of `CC(C)(C)OC(=O)NCCCC(=O)Oc1ccc([N+](=O)[O-])cc1[N+](=O)[O-]` [fragment 41, 2,4-Dinitrophenyl 4-((tert-butoxycarbonyl)amino)butanoate], the “isoTOP-ABPP ratio (R)” value came to 1.0.

In the case of `O=C(Oc1ccc([N+](=O)[O-])cc1[N+](=O)[O-])C(c1ccccc1)(c1ccccc1)c1ccccc1` [fragment 42, 2,4-Dinitrophenyl 2,2,2-triphenylacetate], the “isoTOP-ABPP ratio (R)” value is reported as 0.8.

Turning to `CC(=O)Oc1ccc([N+](=O)[O-])cc1[N+](=O)[O-]` [fragment 43, 2,4-Dinitrophenyl acetate], the “isoTOP-ABPP ratio (R)” value was 1.1.

`N#Cc1ccc(C(=O)Oc2ccc([N+](=O)[O-])cc2[N+](=O)[O-])cc1` [fragment 44, 2,4-Dinitrophenyl 4-cyanobenzoate]: the “isoTOP-ABPP ratio, lysine O43747_K214” value (50 uM_231_sol_in vitro) was determined as 0.9.

`O=C(CCc1ccc2c(c1)OCO2)Oc1ccc([N+](=O)[O-])cc1[N+](=O)[O-]` [fragment 45, 2,4-Dinitrophenyl 3-(benzo[d][1,3]dioxol-5-yl)propanoate]: the “isoTOP-ABPP ratio, lysine O43747_K214” value (50 uM_231_sol_in vitro) is on record as 1.2.

Turning to `O=C(ON1C(=O)CCC1=O)c1cc(C(F)(F)F)cc(C(F)(F)F)c1` [fragment 46, 3,5-Bis(trifluoromethyl)benzoic acid NHS ester], the “isoTOP-ABPP ratio, lysine O43747_K214” value (50 uM_231_sol_in vitro) came out at 1.0.

In the case of `O=C(Oc1c(F)c(F)c(C(F)(F)F)c(F)c1F)c1cc(C(F)(F)F)cc(C(F)(F)F)c1` [fragment 47, 2,3,5,6-Tetrafluoro-4-(trifluoromethyl)phenyl 3,5-bis(trifluoromethyl)benzoate], the “isoTOP-ABPP ratio, lysine O43747_K214” value (50 uM_231_sol_in vitro) is listed as 0.8.

`O=C(Oc1c(F)c(F)cc(F)c1F)c1cc(C(F)(F)F)cc(C(F)(F)F)c1` [fragment 48, 2,3,5,6-Tetrafluorophenyl 3,5-bis(trifluoromethyl)benzoate]: under “50 uM_231_sol_in vitro”, the “isoTOP-ABPP ratio, lysine O43747_K214” value is 0.8.

As to `COC(=O)NC(=NC(=O)OCC1c2ccccc2-c2ccccc21)n1cccn1` [fragment 49, N-Methoxycarbonyl-N′-9-fluorenylmethoxycarbonyl-pyrazole-1-carboxamidine], the “isoTOP-ABPP ratio, lysine O43747_K214” value (100 uM_231_sol_in vitro) came out at 1.0.

On to `CC(C)(C)OC(=O)N=C(NC(=O)OC(C)(C)C)n1cccn1` [fragment 50, reference compound], for which, for the setting “100 uM_231_sol_in vitro”, the “isoTOP-ABPP ratio, lysine O43747_K214” value is 1.0.

Consider `NC(=O)c1cc(C(F)(F)F)cc(C(F)(F)F)c1` [fragment 51, reference compound], for which the “isoTOP-ABPP ratio, lysine O43747_K214” value (50 uM_231_sol_in vitro) was found to be 0.9.

The record behind these values is US20210255193A1, “LYSINE REACTIVE PROBES AND USES THEREOF” (The Scripps Research Institute, priority 2017, published 2021).
